The source of these data is US20240352040A1, “CRYSTAL FORM OF RIPK1 INHIBITOR, ACID SALT THEREOF, AND CRYSTAL FORM OF ACID SALT THEREOF” (GENFLEET THERAPEUTICS (SHANGHAI) INC., priority 2021, published 2024).

Holding throughout (format): physicochemical
Data set [1] in a line: Rough solubility in different solvent systems at room temperature. As for the experimental part: The rough solubility of the free base anhydrous crystal form A of the compound of formula I obtained in Example 1 and the monohydrate crystal form C of the sulfate salt of the compound of formula I obtained in Example 4 was tested in different solvent systems at room temperature. About 2 mg of the solid sample was weighed into an HPLC vial, and then the corresponding solvent was gradually (50/50/200/700 μL in sequence) added thereto and shaken until the solid dissolved to clear. If the sample was still not dissolved to clear after the addition of 1 mL of solvent, no more solvent would be added. The rough solubility ranges calculated from the mass of the solid sample, the volume of the added solvent, and the observed dissolution phenomena are shown in Table 25-1 and Table 25-2.

Assay in data set [2]: as above
The conditions noted are these: 50 °C, organic solvent or mixture, thermodynamic from solid, *Dissolve to clear at 50° C.

Data set [3] is described as follows: Suspension competition test between crystal forms of the sulfate salt (anhydrous/hydrate transformation relationship). As to the method: A suspension competition test between the anhydrous crystal form A of the sulfate salt obtained in Example 5 and the anhydrous crystal form D of the sulfate salt obtained in Example 19 was set up, including conditions of 5° C., 25° C., and 50° C. in methanol and 25° C. in ACN. (Test numbers are from A1 to A4)
A suspension competition test between the monohydrate crystal form C of the sulfate salt obtained in Example 4 and the anhydrous crystal form A of the sulfate salt obtained in Example 5 was set up at room temperature, including a suspension competition test in ACN/H2O (aw=0/0.2/0.4/0.6/0.8) of different water activities at room temperature. (Test numbers are from B1 to B5)
The specific steps are as follows: 1) saturated solutions of sulfate salt in different solvent systems at room temperature were prepared; 2) equal mass of the corresponding samples of crystal form of sulfate salt (about 5 mg each) were added to 1 mL of saturated solution to form a suspension, respectively; 3) the suspension was magnetically stirred at corresponding temperature; 4) the remaining solid was separated and tested by XRPD.

The nature of data set [4]: Hygroscopicity by dynamic vapor sorption (DVS) at 25° C. As for the experimental part:
(3) Dynamic vapor sorption (DVS): Dynamic vapor sorption (DVS) curves were collected on DVS Intrinsic from SMS (surface measurement systems). The relative humidity at 25° C. was corrected using the deliquescence points of LiCl, Mg(NO3)2, and KCl.
The hygroscopicity of the sample of the monohydrate crystal form C of the sulfate salt obtained in […] was evaluated through the DVS test from 0% RH to […] at 25° C.

Data set [5] in a line: Solid state stability (XRPD crystal form, HPLC purity). The conditions noted are these: for Purity / Purity/initial purity / Initial purity: HPLC; for Crystal form transition: XRPD; for Initial purity: before the stability test, monohydrate crystal form C of sulfate salt. As for the experimental part:
(6) High performance liquid chromatography (HPLC): Purity and solubility in the test were determined by Agilent 1260 high performance liquid chromatograph, and the analytical conditions are shown in Table 4.
Appropriate amounts of the samples of the monohydrate crystal form C of the sulfate salt […], and then placed for one week in an open state of 40° C./75% RH. Solid samples separated under different conditions were respectively subjected to XRPD test to evaluate the transition of crystal forms, and subjected to HPLC test to evaluate purity and chemical stability.

[6] abbreviates: 40° C./75% RH/1 week, open, listed as Example 4.
The mark [7] stands for this setting: 40° C./75% RH/1 week, open, listed as Example 9.
The mark [8] stands for this setting: 60° C./sealed/1 week, listed as Example 4.
Where [9] appears, read: 60° C./sealed/1 week, listed as Example 9.
Setting [10] is: sealed 24 hours at 60° C., open one week at 40° C./75% RH, two batches.

Molecules are shown by their SMILES. ≈ marks a conversion by molar mass, not a printed value. Counter-ions that a name gives are not always drawn. Like-named read-outs stand apart in the source and are kept apart here.

For orientation: solubility means the dissolved amount per volume that the medium holds.

As for `Nc1nc2cc(-c3cnc4c(c3)C(=O)N(Cc3cc(OC(F)(F)F)ccc3F)CC4)ccn2n1`, the solubility is greater than 42000 µg/mL in data set [1] (dimethyl sulfoxide, organic solvent or mixture, thermodynamic from solid, Dimethyl sulfoxide, read-out: Solubility) and less than 2400 µg/mL in data set [2] (isopropanol).

Regarding `Nc1nc2cc(-c3cnc4c(c3)C(=O)N(Cc3cc(OC(F)(F)F)ccc3F)CC4)ccn2n1` [free base anhydrous crystal form A, 3-(2-amino-[1,2,4]triazolo[1,5-a]pyridin-7-yl)-6-(2-fluoro-5-(trifluoromethoxy)benzyl)-7,8-dihydro-1,6-naphthyridin-5(6H)-one], the solubility entry was “S < 1.8 mg/mL” in data set [1] (Methanol); less than 1800 µg/mL in data set [1] (acetone, organic solvent or mixture, thermodynamic from solid, Acetone, read-out: Solubility); less than 1900 µg/mL in data set [1] (acetonitrile, organic solvent or mixture, thermodynamic from solid, Acetonitrile, read-out: Solubility); less than 2200 µg/mL in data set [1] (ethanol, organic solvent or mixture, thermodynamic from solid, Ethanol, read-out: Solubility); less than 1900 µg/mL in data set [1] (isopropanol, organic solvent or mixture, thermodynamic from solid, Isopropanol, read-out: Solubility); less than 1700 µg/mL in data set [1] (n-heptane, organic solvent or mixture, thermodynamic from solid, n-Heptane, read-out: Solubility). Also, the solubility in data set [1] (water, thermodynamic from solid, Water, read-out: Solubility) was less than 2100 µg/mL; in data set [2] (dimethyl sulfoxide), 7700 to 23000 µg/mL (≈ 16.3 to 48.7 mM).

Consider `Nc1nc2cc(-c3cnc4c(c3)C(=O)N(Cc3cc(OC(F)(F)F)ccc3F)CC4)ccn2n1` [monohydrate crystal form C of the sulfate salt], for which the solubility result was “S < 2.4 mg/mL” in data set [1] (Acetone), “S < 2.4 mg/mL” in data set [1] (Acetonitrile), “S < 2.4 mg/mL” in data set [1] (Water) and “S < 2.3 mg/mL” in data set [1] (n-Heptane). The “thermodynamic stability range under different water activities” value in data set [3] (room temperature) was “relatively wide”. Besides, the hygroscopicity assessment result in data set [4] (DVS, 25° C.) was “slightly hygroscopic”. The hygroscopic weight gain entry in data set [4] (DVS, 25° C./80% RH) is “about 0.2700”. The “crystal form transition after the DVS test (XRPD)” value in data set [4] (after DVS test) was “no crystal form transition”. Also, the Purity in data set [5] (setting [6]) is 99.46%; in data set [5] (setting [7]) it was 99.45%; in data set [5] (setting [8]), 99.47%; in data set [5] (setting [9]), 99.39%. Besides, the Purity/initial purity in data set [5] (setting [6]) was 99.98%; in data set [5] (setting [7]), 99.93%; in data set [5] (setting [8]) it was 99.99%; in data set [5] (setting [9]) it was 99.87%. Besides, the Crystal form transition entry in data set [5] (40° C./75% RH/1 week, open) is “No”; in data set [5] (60° C./sealed/1 week) it was “No”. Besides, the Initial purity in data set [5] (listed as Example 4) is 99.48%; in data set [5] (listed as Example 9), 99.52%. In data set [5] (setting [10]), the “change in HPLC purity” value is listed as “do not show any significant decrease”. Moreover, the “change of crystal form (XRPD)” value in data set [5] (setting [10]) was “does not change”.

Turning to `O=S(=O)(O)O` [sulfate], the “solid form obtained after stirring in water” value in data set [3] (water, water activity of about 1) is recorded as “free base crystal form A was obtained”.
